Assay [1] addresses Muscarinic acetylcholine receptor. The assay is described as follows: Binding affinity against muscarinic receptor in rat brain membranes using radioligand [H}QNB. The class given is cell membranes.
In a further assay the target is Glutamate NMDA receptor. In words: Binding affinity against phencyclidine receptor in rat brain membranes using radioligand [3H]TCP. The class given is cell membranes.
The next assay deals with D(2) dopamine receptor (Rattus norvegicus, UniProt P61169). The assay is described as follows: Binding affinity against D-2 dopamine receptor in rat brain membranes using [3H](-)-sulpiride as radioligand. The class given is cell membranes.
Chain of D(2) dopamine receptor (P61169 whole entry): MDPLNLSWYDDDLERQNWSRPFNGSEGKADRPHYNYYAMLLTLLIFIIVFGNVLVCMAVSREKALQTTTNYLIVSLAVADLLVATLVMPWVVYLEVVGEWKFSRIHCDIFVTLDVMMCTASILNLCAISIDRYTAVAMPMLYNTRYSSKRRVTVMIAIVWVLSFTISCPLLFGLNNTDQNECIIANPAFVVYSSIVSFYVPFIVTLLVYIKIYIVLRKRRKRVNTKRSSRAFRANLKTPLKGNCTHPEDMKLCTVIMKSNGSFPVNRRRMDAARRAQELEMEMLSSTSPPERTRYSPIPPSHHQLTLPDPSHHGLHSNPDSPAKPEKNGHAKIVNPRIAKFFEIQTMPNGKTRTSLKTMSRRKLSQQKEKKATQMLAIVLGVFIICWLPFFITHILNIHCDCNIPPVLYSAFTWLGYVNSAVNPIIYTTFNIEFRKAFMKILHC
For another assay, the target named is Sigma 2 receptor. In words: Binding affinity against sigma-2 receptor in rat liver using radioligand [3H]DTG in the presence of dextrallorphan.

Among the data in ChEMBL document CHEMBL1127537, “Synthesis and characterization of [125I]-N-(N-benzylpiperidin-4-yl)-4- iodobenzamide, a new sigma receptor radiopharmaceutical: high-affinity binding to MCF-7 breast tumor cells” (J Med Chem, 1994) are Ki values, retold here.

In the case of `O=C(NC1CCN(Cc2ccccc2)CC1)c1ccccc1I`, the Ki in assay [1] was > 100000 nM; on Glutamate NMDA receptor, > 100000 nM; on D(2) dopamine receptor, 63.4 nM; on Sigma 2 receptor, 29.6 nM.
In the case of `O=C(NC1CCN(Cc2ccccc2)CC1)c1ccc(I)cc1`, the inhibitory constant (Ki) was > 100000 nM in assay [1], > 100000 nM at Glutamate NMDA receptor, 382 nM at D(2) dopamine receptor and 25.2 nM on Sigma 2 receptor.
In the case of `O=C(NC1CCN(Cc2ccccc2)CC1)c1cccc(I)c1`, the inhibition constant Ki in assay [1] was > 100000 nM; on Glutamate NMDA receptor, > 100000 nM; on D(2) dopamine receptor, 24.8 nM; on Sigma 2 receptor, 84.6 nM.

By Ki is commonly meant the equilibrium dissociation constant of an inhibitor or competing ligand from its target.
